Data set [1] concerns HIV-IIIb. Kind of data set: Test A: Antiviral assay in MT4 cells. Format: cell-based, HIV-1. Particulars: Human immunodeficiency virus 1, IIIB, MT4, 120 h, read-out: % inhibition at 2 μM, percent inhibition of virus-induced cell killing, from dose response curve at 2 uM drug; MT-4 cells infected with HIV-IIIb, 5 days, CellTiter-Glo.
Data set [2] in a line: in vitro. Particulars: human, uninfected MT-4 cells, CC50 (nM), same protocol as Test A, CellTiter-Glo. An outline of the steps: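 Cytoprotection read-out: CellTiter-Glo chemiluminescence after 5 days at 37 °C of HIV-IIIb-infected MT-4 cells (m.o.i. 0.003) with compound in 10-point 3-fold dilutions, quadruplicate, 10% FBS. Cytotoxicity (CC50) measured identically without virus.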

Turning to `Cc1ccc2c(c1)NC(=O)C2CC(=O)N[C@@H](Cc1cc(F)cc(F)c1)c1ncccc1-c1ccc(F)c(C(N)=O)c1` (stereo partly drawn) [Example 255, 5-(2-((1S)-2-(3,5-difluorophenyl)-1-(2-(6-methyl-2-oxoindolin-3-yl)acetamido)ethyl)pyridin-3-yl)-2-fluorobenzamide], the inhibition at 2 µM in data set [1] is 1%. In data set [2], this molecule had a CC50 at 5 days of more than 53200 nM.
Take `COc1ccc2c(c1)NC(=O)C2CC(=O)N[C@@H](Cc1cc(F)cc(F)c1)c1ncccc1-c1ccc(F)c(C(N)=O)c1` (stereo partly drawn) [Example 256, 5-(2-((1S)-2-(3,5-difluorophenyl)-1-(2-(6-methoxy-2-oxoindolin-3-yl)acetamido)ethyl)pyridin-3-yl)-2-fluorobenzamide]: in data set [1], the inhibition at 2 µM was 15%. The molecule further registered a CC50 at 5 days in data set [2] of more than 53200 nM.
On to `NC(=O)c1cc(-c2cccnc2[C@H](Cc2cccc(F)c2)NC(=O)Cc2cc(=O)[nH]c3ccccc23)ccc1F` [Example 257, (S)-2-fluoro-5-(2-(2-(3-fluorophenyl)-1-(2-(2-oxo-1,2-dihydroquinolin-4-yl)acetamido)ethyl)pyridin-3-yl)benzamide], for which the inhibition at 2 µM in data set [1] stood at 7%. Also, in data set [2], the CC50 at 5 days was more than 53200 nM.
For the molecule `NC(=O)c1cc(-c2cccnc2[C@H](Cc2cc(F)cc(F)c2)NC(=O)Cn2nc(C(F)(F)F)c3c2COC3)ccc1F` [Example 258, (S)-5-(2-(2-(3,5-difluorophenyl)-1-(2-(3-(trifluoromethyl)-4,6-dihydro-1H-furo[3,4-c]pyrazol-1-yl)acetamido)ethyl)pyridin-3-yl)-2-fluorobenzamide], the inhibition at 2 µM in data set [1] was determined as 8%. In data set [2], this molecule yielded a CC50 at 5 days of more than 53200 nM.
Turning to `Cc1ccc(C)c2c1NC(=O)C2CC(=O)N[C@@H](Cc1cc(F)cc(F)c1)c1ncccc1-c1ccc(F)c(C(N)=O)c1` (stereo partly drawn) [Example 259, 5-(2-((1S)-2-(3,5-difluorophenyl)-1-(2-(4,7-dimethyl-2-oxoindolin-3-yl)acetamido)ethyl)pyridin-3-yl)-2-fluorobenzamide], in data set [1], the inhibition at 2 µM came out at 2%. In data set [2], this molecule displayed a CC50 at 5 days of 47600 nM.
`NC(=O)c1cc(-c2cccnc2[C@H](Cc2cc(F)cc(F)c2)NC(=O)Cn2nc(C(F)F)c3c2C(F)C2CC32)ccc1F` (stereo partly drawn) [Example 260, 5-(2-((1S)-1-(2-(3-(difluoromethyl)-5-fluoro-3b,4,4a,5-tetrahydro-1H-cyclopropa[3,4]cyclopenta[1,2-c]pyrazol-1-yl)acetamido)-2-(3,5-difluorophenyl)ethyl)pyridin-3-yl)-2-fluorobenzamide]: the inhibition at 2 µM in data set [1] is 54%. Also, the CC50 at 5 days in data set [2] was 28100 nM.
The like results for `NC(=O)c1cc(-c2cccnc2[C@H](Cc2cc(F)cc(F)c2)NC(=O)Cn2nc3c(c2C(F)(F)F)CSC3)ccc1F` [Example 261, (S)-5-(2-(2-(3,5-difluorophenyl)-1-(2-(3-(trifluoromethyl)-4,6-dihydro-2H-thieno[3,4-c]pyrazol-2-yl)acetamido)ethyl)pyridin-3-yl)-2-fluorobenzamide] were, in that order, 6% and 21200 nM.
With `Cc1cnc([C@H](Cc2cc(F)cc(F)c2)NC(=O)Cc2c[nH]c3ccc(O)cc23)c(-c2ccc(F)c(C(N)=O)c2)c1` [Example 262G, (S)-5-(2-(2-(3,5-difluorophenyl)-1-(2-(5-hydroxy-1H-indol-3-yl)acetamido)ethyl)-5-methylpyridin-3-yl)-2-fluorobenzamide], the inhibition at 2 µM in data set [1] turned out to be 109%. The molecule further showed a CC50 at 5 days in data set [2] of more than 51200 nM.
Taken in the same sequence, the figures for `NC(=O)c1cc(-c2cccnc2[C@H](Cc2cc(F)cc(F)c2)NC(=O)Cn2nc(C(F)(F)F)c3c2CCS(=O)(=O)C3)ccc1F` [Example 263, (S)-5-(2-(2-(3,5-difluorophenyl)-1-(2-(5,5-dioxido-3-(trifluoromethyl)-6,7-dihydrothiopyrano[4,3-c]pyrazol-1(4H)-yl)acetamido)ethyl)pyridin-3-yl)-2-fluorobenzamide] were 17% and more than 53200 nM.

The record behind these values is patent US9540343B2 (Gilead Sciences, Inc., priority 2011, dated 2017).
